{
  "source": "patent US10905125B2",
  "about": "“Biocidal compositions and method of treating water using thereof” (BWA WATER ADDITIVES UK LIMITED, priority 2014, dated 2021)",
  "key": {"Enterobacter aerogenes": {"test_system": "Enterobacter aerogenes", "assay": "Log10 reduction of viable facultative anaerobe cells in saline phosphate buffer suspension (serial dilution into anaerobic acid producing media vials)", "format": "cell-based", "conditions": "for Log10 Reduction Facultative Anaerobes: pH 7.5 phosphate buffer, room temperature; for efficacy against the facultative anaerobe Enterobacter aerogenes (in words): agent alone", "protocol": "(§1) A suspension of Desulfovibrio vulgaris plus Enterobacter aerogenes bacteria containing from 1××10^6 to 1×10^8 cells/mL was prepared in sterile pH 7.5 phosphate buffer containing varying levels of sodium chloride to give the desired total dissolved solids (TDS) concentration. Aliquots of this suspension were dosed with the indicated concentrations of a phosphonium compound and a hypohalite compound with the concentrations being measured as ppm by weight of the stated compounds added to the dosed suspension. The mixtures were allowed to stand at room temperature. At the designated contact times, each mixture was sampled to determine the total number of viable cells of both Desulfovibrio vulgaris and Enterobacter aerogenes by serial 10-fold dilution into API RP 38 media vials and anaerobic acid producing media vials, respectively. The vials were incubated at 37° C. for 72 hours. Results were recorded as cells per millilitre.\n(§2) Aqueous media inoculated with anaerobe and facultative anaerobe culture and having a TDS of 10,000 mg l^−1; 20,000 mg l^−1; or 30,000 mg l^−1 was treated with treatment agents comprising: (i) sodium hypochlorite; (ii) tri n-butyl n-tetradecyl phosphonium chloride (TTPC) or (iii) a combination of sodium hypochlorite and TTPC.\n(§3) TTPC was used in the form of Bellacide 355, an aqueous composition of TTPC and water consisting of water and […] of TTPC available from BWA Water Additives.\n(§4) Sodium hypochlorite was used in the form of Clorox, an aqueous composition of sodium hypochlorite and water consisting of water and 6% by weight sodium hypochlorite available from The Clorox Company.\n(§5) The efficacy of the treatment agents was evaluated by measuring the Log 10 Reduction of the anaerobe Desulfovibrio vulgaris and the facultative anaerobe Enterobacter aerogenes [after contact times of 10 and 30 minutes as detailed in Table 1. For TTPC and sodium hypochlorite the stated ppm values relate to the amount added. The addition of 35 ppm sodium hypochlorite to the aqueous system provided 2 ppm of free sodium hypochlorite in the treated aqueous system."}, "Desulfovibrio vulgaris": {"test_system": "Desulfovibrio vulgaris", "assay": "Log10 reduction of viable anaerobe cells in saline phosphate buffer suspension (serial dilution into API RP 38 media vials)", "format": "cell-based", "conditions": "for Log10 Reduction Anaerobes: pH 7.5 phosphate buffer, room temperature; for efficacy against the anaerobe Desulfovibrio vulgaris (in words): agent alone", "protocol": "as §1, §2, §3, §4, §5"}, "[1]": {"conditions": "TDS 20,000 mg l-1, contact time 30 minutes, listed as 3 (comparative)"}, "[2]": {"conditions": "TDS 30,000 mg l-1, contact time 30 minutes"}, "[3]": {"conditions": "TDS 30,000 mg l-1, contact times of 10 and 30 minutes"}, "[4]": {"conditions": "TDS 30,000 mg l-1, contact time 10 minutes"}, "[5]": {"conditions": "TDS 20,000 mg l-1, contact time 30 minutes, listed as 4 (comparative)"}},
  "data": [
    {"molecule": "CCCCCCCCCCCCCC[P+](CCCC)(CCCC)CCCC.[Cl-]", "note": "[Example 2]", "values": [
      {"measurement": "Log10 Reduction Facultative Anaerobes", "setting": "Enterobacter aerogenes; TDS 10,000 mg l-1, contact time 30 minutes, listed as 2 (comparative)", "result": 8}
    ]},
    {"molecule": "CCCCCCCCCCCCCC[P+](CCCC)(CCCC)CCCC.[Cl-]", "note": "[Example 3]", "values": [
      {"measurement": "Log10 Reduction Anaerobes", "setting": "Desulfovibrio vulgaris; [1]", "result": 3},
      {"measurement": "Log10 Reduction Facultative Anaerobes", "setting": "Enterobacter aerogenes; [1]", "result": 0}
    ]},
    {"molecule": "CCCCCCCCCCCCCC[P+](CCCC)(CCCC)CCCC.[Cl-]", "note": "[TTPC, tri n-butyl n-tetradecyl phosphonium chloride]", "values": [
      {"measurement": "efficacy against the anaerobe Desulfovibrio vulgaris (in words)", "setting": "Desulfovibrio vulgaris; [2]", "result": "ineffective"},
      {"measurement": "efficacy against the facultative anaerobe Enterobacter aerogenes (in words)", "setting": "Enterobacter aerogenes; [2]", "result": "ineffective"}
    ]},
    {"molecule": "OCl", "note": "[Sodium hypochlorite, sodium hypochlorite]", "values": [
      {"measurement": "efficacy against the anaerobe Desulfovibrio vulgaris (in words)", "setting": "Desulfovibrio vulgaris; [3]", "result": "some efficacy"},
      {"measurement": "efficacy against the facultative anaerobe Enterobacter aerogenes (in words)", "setting": "Enterobacter aerogenes; [3]", "result": "some efficacy"}
    ]},
    {"molecule": "[Na+].[O-]Cl", "note": "[Example 11]", "values": [
      {"measurement": "Log10 Reduction Anaerobes", "setting": "Desulfovibrio vulgaris; [4]", "result": 5},
      {"measurement": "Log10 Reduction Facultative Anaerobes", "setting": "Enterobacter aerogenes; [4]", "result": 2}
    ]},
    {"molecule": "CCCCCCCCCCCCCC[P+](CCCC)(CCCC)CCCC.[Cl-]", "note": "[Example 4]", "values": [
      {"measurement": "Log10 Reduction Anaerobes", "setting": "Desulfovibrio vulgaris; [5]", "result": 6},
      {"measurement": "Log10 Reduction Facultative Anaerobes", "setting": "Enterobacter aerogenes; [5]", "result": 5}
    ]},
    {"molecule": "CCCCCCCCCCCCCC[P+](CCCC)(CCCC)CCCC.[Cl-]", "note": "[Example 1]", "values": [
      {"measurement": "Log10 Reduction Anaerobes", "setting": "Desulfovibrio vulgaris; TDS 10,000 mg l-1, contact time 30 minutes", "result": 6},
      {"measurement": "Log10 Reduction Facultative Anaerobes", "setting": "Enterobacter aerogenes; TDS 10,000 mg l-1, contact time 30 minutes, listed as 1 (comparative)", "result": 6}
    ]},
    {"molecule": "[Na+].[O-]Cl", "note": "[Example 6]", "values": [
      {"measurement": "Log10 Reduction Anaerobes", "setting": "Desulfovibrio vulgaris; [2]", "result": 3},
      {"measurement": "Log10 Reduction Facultative Anaerobes", "setting": "Enterobacter aerogenes; [2]", "result": 3}
    ]},
    {"molecule": "CCCCCCCCCCCCCC[P+](CCCC)(CCCC)CCCC.[Cl-]", "note": "[Example 5]", "values": [
      {"measurement": "Log10 Reduction Anaerobes", "setting": "Desulfovibrio vulgaris; [2]", "result": 0},
      {"measurement": "Log10 Reduction Facultative Anaerobes", "setting": "Enterobacter aerogenes; [2]", "result": 0}
    ]}
  ]
}
